From patent US10093630B2, “Pyrazole compounds and methods of making and using same” (ABIDE THERAPEUTICS, INC., priority 2014, dated 2018) come the findings set out here.

Where two headings read alike, the source gives them in different places. Where only a bound is given, the exact number is not on record here.

Holding throughout (experiment): In vitro competitive activity-based protein profiling (gel-based, FP-Rh or HT-01 probe)
What all share (assay type): biochemical

The target of one experiment is T1, FAAH (Mus musculus, UniProt O08914).
T1 construct: Proteomes (mouse brain membrane fraction or cell lysates); from tissue; host or cells: mouse brain membrane fraction (or cell lysates, not specified)
T1 sequence (O08914 1-579): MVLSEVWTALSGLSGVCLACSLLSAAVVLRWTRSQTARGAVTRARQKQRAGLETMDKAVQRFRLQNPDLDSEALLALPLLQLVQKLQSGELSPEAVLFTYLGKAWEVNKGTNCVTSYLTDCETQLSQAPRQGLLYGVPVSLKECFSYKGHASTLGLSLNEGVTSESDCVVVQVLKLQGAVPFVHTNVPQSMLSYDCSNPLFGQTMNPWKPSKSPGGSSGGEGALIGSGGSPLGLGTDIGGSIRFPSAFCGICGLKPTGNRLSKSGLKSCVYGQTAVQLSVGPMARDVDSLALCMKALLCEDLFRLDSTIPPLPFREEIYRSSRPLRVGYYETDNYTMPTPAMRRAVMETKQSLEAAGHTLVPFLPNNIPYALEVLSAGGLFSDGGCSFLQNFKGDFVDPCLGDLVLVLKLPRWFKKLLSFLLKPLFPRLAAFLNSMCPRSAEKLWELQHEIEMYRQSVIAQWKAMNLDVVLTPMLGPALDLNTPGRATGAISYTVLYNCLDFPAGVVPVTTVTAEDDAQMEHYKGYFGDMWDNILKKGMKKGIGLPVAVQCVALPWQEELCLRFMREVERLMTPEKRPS
Conditions: for inhibition at 1 µM: 1 μM inhibitor, read-out: % Inhibition at 1 μM, B = FAAH; for inhibition at 10 µM: 10 μM inhibitor, read-out: % Inhibition at 10 μM, B = FAAH; for IC50: mouse brain membrane fraction or cell lysates, 30 min preincubation at 37° C., read-out: Mouse (IC50 value, nM) FAAH. The method, then:
(§1) In Vitro Competitive Activity-Based Protein Profiling.
(§2) Proteomes (mouse brain membrane fraction or cell lysates) (50 μL, 1.0 mg/mL total protein concentration) were preincubated with varying concentrations of inhibitors at 37° C. After 30 min, FP-Rh or HT-01 ([…], 50 μM in DMSO) was added and the mixture was incubated for another 30 min at 37° C. Reactions were quenched with SDS loading buffer (15 μL—4×) and run on SDS-PAGE. Following gel imaging, serine hydrolase activity was determined by measuring fluorescent intensity of gel bands corresponding to MAGL, ABHD6, FAAH, and PLA2G7 using ImageJ 1.43u software.

A further experiment has as its target T2, MAGL (Mus musculus, UniProt O35678).
T2 construct: Proteomes (mouse brain membrane fraction or cell lysates); from tissue; host or cells: mouse brain membrane fraction (or cell lysates, not specified)
T2 sequence (O35678 1-303): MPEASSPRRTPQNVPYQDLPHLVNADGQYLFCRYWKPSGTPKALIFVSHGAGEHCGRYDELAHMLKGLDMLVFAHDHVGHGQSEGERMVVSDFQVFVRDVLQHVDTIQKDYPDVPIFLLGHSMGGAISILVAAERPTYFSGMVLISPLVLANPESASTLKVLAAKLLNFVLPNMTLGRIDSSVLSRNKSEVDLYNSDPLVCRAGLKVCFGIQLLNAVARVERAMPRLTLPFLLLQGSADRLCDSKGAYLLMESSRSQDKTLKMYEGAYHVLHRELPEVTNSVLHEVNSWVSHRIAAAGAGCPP
Conditions: for inhibition at 1 µM: 1 μM inhibitor; for inhibition at 10 µM: 10 μM inhibitor; for IC50: mouse brain membrane fraction or cell lysates, 30 min preincubation at 37° C., read-out: Mouse (IC50 value, nM) MAGL. On the procedure: as §1, §2

A further experiment has as its target T3, PLA2G7 (Mus musculus, UniProt Q60963).
T3 construct: Proteomes (mouse brain membrane fraction or cell lysates); from tissue; host or cells: mouse brain membrane fraction (or cell lysates, not specified)
T3 sequence (Q60963 22-440): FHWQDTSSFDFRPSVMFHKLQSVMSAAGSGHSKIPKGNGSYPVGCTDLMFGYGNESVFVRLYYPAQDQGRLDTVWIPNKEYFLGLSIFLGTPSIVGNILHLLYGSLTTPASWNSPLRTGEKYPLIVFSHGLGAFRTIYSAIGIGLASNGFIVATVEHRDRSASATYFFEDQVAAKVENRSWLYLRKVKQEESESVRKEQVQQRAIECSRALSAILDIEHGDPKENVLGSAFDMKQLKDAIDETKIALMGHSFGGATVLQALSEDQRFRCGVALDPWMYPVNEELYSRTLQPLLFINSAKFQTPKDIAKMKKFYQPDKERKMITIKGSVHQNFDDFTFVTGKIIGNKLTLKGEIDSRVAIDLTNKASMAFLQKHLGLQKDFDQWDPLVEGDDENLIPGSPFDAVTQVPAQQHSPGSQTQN
The conditions noted are these: for inhibition at 1 µM: 1 μM inhibitor, read-out: % Inhibition at 1 μM, D = PLA2G7; for inhibition at 10 µM: 10 μM inhibitor, read-out: % Inhibition at 10 μM, D = PLA2G7. The method, then:
as §1, §2

A further experiment deals with T4, ABHD6 (Mus musculus, UniProt Q8R2Y0).
T4 construct: Proteomes (mouse brain membrane fraction or cell lysates); from tissue; host or cells: mouse brain membrane fraction (or cell lysates, not specified)
T4 sequence (Q8R2Y0 1-336): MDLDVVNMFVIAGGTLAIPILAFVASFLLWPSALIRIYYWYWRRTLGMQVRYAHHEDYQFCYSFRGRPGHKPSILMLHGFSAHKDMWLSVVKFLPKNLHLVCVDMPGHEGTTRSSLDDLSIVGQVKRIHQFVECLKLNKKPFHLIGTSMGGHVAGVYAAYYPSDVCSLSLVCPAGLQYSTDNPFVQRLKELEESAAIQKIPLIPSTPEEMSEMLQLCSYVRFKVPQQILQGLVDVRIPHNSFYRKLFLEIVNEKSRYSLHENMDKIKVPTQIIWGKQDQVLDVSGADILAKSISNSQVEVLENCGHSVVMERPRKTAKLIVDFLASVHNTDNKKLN
The conditions noted are these: for inhibition at 1 µM: 1 μM inhibitor, read-out: % Inhibition at 1 μM, C = ABHD6; for inhibition at 10 µM: 10 μM inhibitor, read-out: % Inhibition at 10 μM, C = ABHD6; for IC50: mouse brain membrane fraction or cell lysates, 30 min preincubation at 37° C., read-out: Mouse (IC50 value, nM) ABHD6. The method, then:
as §1, §2

`CCN(Cc1ccc(Cl)cc1)C(=O)n1cc(C#N)cn1` [Example 252, N-(4-Chlorobenzyl)-4-cyano-N-ethyl-1H-pyrazole-1-carboxamide]: the inhibition – broadly, the share of the control response that was lost under treatment – at 1 µM at FAAH (gel-based competitive ABPP) was greater than 75%; on MAGL (gel-based competitive ABPP) it was greater than 75%; at PLA2G7 (gel-based competitive ABPP) it was less than 25%; at ABHD6 (gel-based competitive ABPP), less than 25%. For the same molecule, the inhibition at 10 µM at FAAH (gel-based competitive ABPP) is greater than 75%; on MAGL (gel-based competitive ABPP), greater than 75%; at PLA2G7 (gel-based competitive ABPP) it was 25 to 75%; at ABHD6 (gel-based competitive ABPP), greater than 75%. The concentration for half-maximal inhibition (IC50) (usually the point on the concentration scale where inhibition reaches its midpoint) at FAAH was less than 100 nM; on MAGL, 100 to 1000 nM; at ABHD6, greater than 1000 nM.
Regarding `CN1CCN(C(=O)n2cc(C(F)(F)F)cn2)CC1` [Example 151, (4-Methylpiperazin-1-yl)(4-(trifluoromethyl)-1H-pyrazol-1-yl)methanone], the inhibition at 1 µM is greater than 75% on FAAH, less than 25% on MAGL, 25 to 75% at PLA2G7 and greater than 75% at ABHD6. For the same molecule, the inhibition at 10 µM at FAAH, on MAGL, at PLA2G7 and at ABHD6 was greater than 75% each time.
On to `O=C(N1CCN(C(c2ccc(Cl)cc2)c2ccc(Cl)cc2)CC1)n1cc(-c2ccccc2C(F)(F)F)cn1` [Example 123, (4-(Bis(4-chlorophenyl)methyl)piperazin-1-yl)(4-(2-(trifluoromethyl)phenyl)-1H-pyrazol-1-yl)methanone], for which the inhibition at 10 µM on FAAH was less than 25%; on MAGL, 25 to 75%; at PLA2G7, 25 to 75%; at ABHD6, greater than 75%. Also, the inhibition at 1 µM on PLA2G7 was less than 25%; on ABHD6, 25 to 75%.
Regarding `O=C(c1cnn(C(=O)N2CCN(Cc3ccc(-c4ccccc4)cc3Cl)CC2)c1)N1CCCC1` [Example 289, (4-((3-Chlorobiphenyl-4-yl)methyl)piperazin-1-yl)(4-(pyrrolidine-1-carbonyl)-1H-pyrazol-1-yl)methanone], the inhibition at 1 µM at FAAH (gel-based competitive ABPP), on MAGL (gel-based competitive ABPP), on PLA2G7 (gel-based competitive ABPP) and on ABHD6 (gel-based competitive ABPP) was greater than 75% each time. The inhibition at 10 µM on FAAH (gel-based competitive ABPP), at MAGL (gel-based competitive ABPP), at PLA2G7 (gel-based competitive ABPP) and on ABHD6 (gel-based competitive ABPP) was greater than 75% in each case.
Turning to `N#Cc1cnn(C(=O)N2CCN(Cc3ccc(C(=O)N4CCC4)cc3F)CC2)c1` [Example 285, 1-(4-(4-(Azetidine-1-carbonyl)-2-fluorobenzyl)piperazine-1-carbonyl)-1H-pyrazole-4-carbonitrile], the inhibition at 1 µM on FAAH (gel-based competitive ABPP), at MAGL (gel-based competitive ABPP), at PLA2G7 (gel-based competitive ABPP) and at ABHD6 (gel-based competitive ABPP) was greater than 75% throughout. The inhibition at 10 µM at FAAH (gel-based competitive ABPP), on MAGL (gel-based competitive ABPP), on PLA2G7 (gel-based competitive ABPP) and on ABHD6 (gel-based competitive ABPP) was greater than 75% in each case.
For `O=C(N1CCN(c2ccc(N3CCOCC3)cc2)CC1)n1cc(C(F)(F)F)cn1` [Example 238, (4-(4-Morpholinophenyl)piperazin-1-yl)(4-(trifluoromethyl)-1H-pyrazol-1-yl)methanone], the inhibition at 1 µM at FAAH, at MAGL, at PLA2G7 and on ABHD6 was greater than 75% in each case. In addition, the inhibition at 10 µM at FAAH, at MAGL, at PLA2G7 and on ABHD6 was greater than 75% each time.
On to `CN(CCN(C)C(=O)n1cc(C#N)cn1)C(=O)c1ccccc1` [Example 182, 4-Cyano-N-methyl-N-(2-(N-methylbenzamido)ethyl)-1H-pyrazole-1-carboxamide], for which the inhibition at 1 µM was greater than 75% on FAAH, less than 25% at MAGL, less than 25% on PLA2G7 and less than 25% at ABHD6. The inhibition at 10 µM at FAAH, at MAGL, on PLA2G7 and at ABHD6 was greater than 75% each time.
Take `Cc1cnn(C(=O)N2CCN(C)CC2)c1` [Example 163, (4-Methyl-1H-pyrazol-1-yl)(4-methylpiperazin-1-yl)methanone]: the inhibition at 1 µM on FAAH, at MAGL, at PLA2G7 and at ABHD6 was less than 25% in each case. Moreover, the inhibition at 10 µM was less than 25% on FAAH, less than 25% on MAGL, less than 25% at PLA2G7 and 25 to 75% at ABHD6.
Regarding `O=C(N1CCN(c2ccccc2N2CCOCC2)CC1)n1cc(C(F)(F)F)cn1` [Example 236, (4-(2-Morpholinophenyl)piperazin-1-yl)(4-(trifluoromethyl)-1H-pyrazol-1-yl)methanone], the inhibition at 1 µM at FAAH was 25 to 75%; at MAGL, greater than 75%; at PLA2G7 it was greater than 75%; at ABHD6 it was greater than 75%. The inhibition at 10 µM on FAAH, at MAGL, at PLA2G7 and at ABHD6 was greater than 75% throughout.
In the case of `O=C(N1CCN(Cc2cccc(Cl)c2)CC1)n1cc(C(F)(F)F)cn1` [Example 268, (4-(3-Chlorobenzyl)piperazin-1-yl)(4-(trifluoromethyl)-1H-pyrazol-1-yl)methanone], the inhibition at 1 µM at FAAH (gel-based competitive ABPP), on MAGL (gel-based competitive ABPP), on PLA2G7 (gel-based competitive ABPP) and on ABHD6 (gel-based competitive ABPP) was greater than 75% in each case. For the same molecule, the IC50 is less than 100 nM on FAAH; less than 100 nM on MAGL; 100 to 1000 nM on PLA2G7 (mouse brain membrane fraction or cell lysates, 30 min preincubation at 37° C.); less than 100 nM at ABHD6.
